Assay results reported in paper PMC4058747, “Structural Mechanisms Determining Inhibition of the Collagen Receptor DDR1 by Selective and Multi-Targeted Type II Kinase Inhibitors” (Journal of Molecular Biology, 2014).
pEC50, pIC50: −log10 of the molar value. Where two headings read alike, the source gives them in different places.

Key:
[1] = biological target: T1, DDR2 (Homo sapiens, UniProt Q16832); test: LanthaScreen kinase activity assay (Invitrogen), DDR2; type: biochemical; details: read-out: Enzymatic IC50 values DDR2
T1 construct: purchased Invitrogen
T1 sequence (Q16832 22-855): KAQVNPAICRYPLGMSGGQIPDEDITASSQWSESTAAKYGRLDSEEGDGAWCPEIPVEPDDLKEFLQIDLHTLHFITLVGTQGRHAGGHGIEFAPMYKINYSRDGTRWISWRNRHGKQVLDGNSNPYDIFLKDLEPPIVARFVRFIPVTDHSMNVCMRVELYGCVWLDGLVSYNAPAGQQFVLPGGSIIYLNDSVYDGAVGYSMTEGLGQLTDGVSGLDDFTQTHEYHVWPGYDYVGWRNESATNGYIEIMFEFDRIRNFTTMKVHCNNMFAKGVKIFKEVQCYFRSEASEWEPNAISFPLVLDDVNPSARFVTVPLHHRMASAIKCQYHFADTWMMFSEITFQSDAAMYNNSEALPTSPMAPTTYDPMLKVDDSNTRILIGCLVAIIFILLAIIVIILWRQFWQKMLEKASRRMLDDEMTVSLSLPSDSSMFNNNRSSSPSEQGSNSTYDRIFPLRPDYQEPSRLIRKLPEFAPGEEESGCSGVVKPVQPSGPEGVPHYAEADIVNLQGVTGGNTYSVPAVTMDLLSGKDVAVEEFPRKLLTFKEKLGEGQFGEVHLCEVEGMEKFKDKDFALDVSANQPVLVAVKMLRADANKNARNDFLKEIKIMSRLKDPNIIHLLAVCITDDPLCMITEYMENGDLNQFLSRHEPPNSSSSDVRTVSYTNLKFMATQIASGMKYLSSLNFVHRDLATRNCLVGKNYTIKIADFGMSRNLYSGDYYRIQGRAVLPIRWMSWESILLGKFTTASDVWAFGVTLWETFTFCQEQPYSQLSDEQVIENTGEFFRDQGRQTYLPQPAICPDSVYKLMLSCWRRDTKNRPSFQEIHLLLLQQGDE
Description: (§1) IC50 values were determined by Invitrogen using a LanthaScreen kinase activity assay.
(§2) Figure S2. Inhibition of DDR1 and DDR2. (a) IC50 values for DDR1 inhibition determined by using a LanthaScreen kinase activity assay (Invitrogen). (b) IC50 values for DDR2 inhibition determined similarly.

[2] = biological target: T2, DDR1 (Homo sapiens, UniProt Q08345); test: LanthaScreen kinase activity assay (Invitrogen), DDR1; type: biochemical; details: for pIC50: LanthaScreen kinase activity assay, read-out: Enzymatic IC50 values DDR1; for activity of analogs against DDR1 kinase activity (in words): removal of the trifluoromethyl group
T2 construct: purchased Invitrogen
Description: as §1, §2

[3] = biological target: T2, DDR1; design: method as in PMID 23275061; details: cited from earlier work
[4] = biological target: T2, DDR1; design: method as in PMID 23275061; details: cited from earlier work; remark: listed apart in the source
[5] = system: ABL; design: method as in PMID 23899692; details: quoted for selectivity relative to DDR1; cited from earlier work

T2 sequence (Q08345 19-913): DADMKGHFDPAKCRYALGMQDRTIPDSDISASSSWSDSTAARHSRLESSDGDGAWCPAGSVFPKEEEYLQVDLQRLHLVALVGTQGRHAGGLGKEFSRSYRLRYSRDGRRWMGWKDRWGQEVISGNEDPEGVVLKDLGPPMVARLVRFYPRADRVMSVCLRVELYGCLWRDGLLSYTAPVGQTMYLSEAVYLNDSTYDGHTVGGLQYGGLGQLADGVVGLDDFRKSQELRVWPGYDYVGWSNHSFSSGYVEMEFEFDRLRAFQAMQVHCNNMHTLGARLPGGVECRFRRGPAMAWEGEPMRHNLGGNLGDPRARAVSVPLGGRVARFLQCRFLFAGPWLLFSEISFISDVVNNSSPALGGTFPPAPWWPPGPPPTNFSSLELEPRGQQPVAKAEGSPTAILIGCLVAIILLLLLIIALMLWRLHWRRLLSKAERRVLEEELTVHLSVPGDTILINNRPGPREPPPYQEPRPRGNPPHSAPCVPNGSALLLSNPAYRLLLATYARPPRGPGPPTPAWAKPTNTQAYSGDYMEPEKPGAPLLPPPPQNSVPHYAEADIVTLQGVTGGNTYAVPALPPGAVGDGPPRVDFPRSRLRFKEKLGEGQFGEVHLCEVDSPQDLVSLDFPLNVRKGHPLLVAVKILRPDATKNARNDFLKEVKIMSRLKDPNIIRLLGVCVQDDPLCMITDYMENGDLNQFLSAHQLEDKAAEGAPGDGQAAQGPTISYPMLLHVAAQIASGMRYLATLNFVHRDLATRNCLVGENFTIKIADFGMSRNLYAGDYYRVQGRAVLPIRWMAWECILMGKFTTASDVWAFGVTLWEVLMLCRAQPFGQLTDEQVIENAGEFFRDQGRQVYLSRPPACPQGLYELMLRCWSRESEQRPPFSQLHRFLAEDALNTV

Row | pIC50 [1] | pIC50 [2] | activity of analogs against DDR1 kinase activity (in words) [2] | SMILES | pIC50 [3] | pEC50 [4] | pIC50 [5]
1 | < 5.00 | 5.05 | inactive | CCN1CCN(Cc2ccc(F)c(C(=O)Nc3ccc(C)c(Oc4ccc5c(c4)CC(=O)N5)c3)c2)CC1 [Compound 7] | – | – | –
2 | 6.41 | 6.82 | – | CCN1CCN(c2cc(C(=O)Nc3ccc(C)c(Oc4ccc5c(c4)CC(=O)N5)c3)cc(C(F)(F)F)c2)CC1 [Compound 4] | – | – | –
3 | 5.99 | 6.76 | – | Cc1ccc(NC(=O)c2cccc(C(C)(C)C#N)c2)cc1Oc1ccc2c(c1)CC(=O)N2 [Compound 5] | – | – | –
4 | – | – | – | Cc1ccc(C(=O)Nc2ccc(Oc3cc4cnn(C)c4cc3-c3cn[nH]c3)c(F)c2)c(=O)n1-c1ccc(F)cc1 [LY2801653] | > 9.00 | > 9.00 | –
5 | < 5.00 | < 5.00 | inactive | CCN1CCN(Cc2ccc(C(=O)Nc3ccc(C)c(Oc4ccc5c(c4)CC(=O)N5)c3)c(F)c2)CC1 [Compound 6] | – | – | –
6 | 6.38 | – | – | CCN1CCN(Cc2ccc(C(=O)Nc3ccc(C)c(Oc4ccc5c(c4)CC(=O)N5)c3)cc2C(F)(F)F)CC1 [DDR1-IN-1] | – | – | 5.74
7 | 6.47 | 6.94 | – | Cc1ccc(NC(=O)c2ccc(OC3CCN(C)CC3)c(C(F)(F)F)c2)cc1Oc1ccc2c(c1)CC(=O)N2 [Compound 2] | – | – | –
8 | 6.26 | 6.74 | – | Cc1ccc(NC(=O)c2cc(N3CCN(CCO)CC3)cc(C(F)(F)F)c2)cc1Oc1ccc2c(c1)CC(=O)N2 [Compound 3] | – | – | –
9 | 6.11 | 6.58 | – | CCN1CCN(Cc2ccc(NC(=O)Nc3ccc(C)c(Oc4ccc5c(c4)CC(=O)N5)c3)cc2C(F)(F)F)CC1 [Compound 1] | – | – | –
